The subject of assay [1] is Escherichia coli. Put plainly: Antimicrobial activity against Escherichia coli KCTC 1682 assessed as minimal inhibitory concentration incubated for 18 hrs. It counts as functional.
Assay [2] concerns Pseudomonas aeruginosa. Description: Antimicrobial activity against Pseudomonas aeruginosa KCTC 1637 assessed as minimal inhibitory concentration incubated for 18 hrs. It counts as functional.
The subject of assay [3] is Staphylococcus aureus. Put plainly: Antimicrobial activity against Staphylococcus aureus KCTC 1621 assessed as minimal inhibitory concentration incubated for 18 hrs. It counts as functional.
The test system of assay [4] is Staphylococcus epidermidis. Put plainly: Antimicrobial activity against Staphylococcus epidermidis KCTC 1917 assessed as minimal inhibitory concentration incubated for 18 hrs. It counts as functional.
In assay [5] the test system is Escherichia coli. Put plainly: Antibacterial activity against Escherichia coli assessed as minimal inhibitory concentration incubated for 24 hrs. It counts as functional.
Assay [6] has as its system Salmonella enterica. Description: Antibacterial activity against Salmonella enterica assessed as minimal inhibitory concentration incubated for 24 hrs. It counts as functional.
Assay [7] concerns Staphylococcus aureus. Put plainly: Antibacterial activity against Staphylococcus aureus assessed as minimal inhibitory concentration incubated for 24 hrs. It counts as functional.
The subject of assay [8] is Bacillus subtilis. Put plainly: Antibacterial activity against Bacillus subtilis assessed as minimal inhibitory concentration incubated for 72 hrs. It counts as functional.
Assay [9] concerns Staphylococcus aureus. Description: Antibacterial activity against Staphylococcus aureus MRSA assessed as minimal inhibitory concentration incubated for 24 hrs. It counts as functional.
For assay [10], the system named is Middle East respiratory syndrome-related coronavirus. Put plainly: microbe, parasite or virus in culture.
Assay [11] concerns SARS-CoV-2. Put plainly: microbe, parasite or virus in culture. The note with it: Severe acute respiratory syndrome coronavirus 2.
Assay [12] relates to Murine hepatitis virus. Put plainly: microbe, parasite or virus in culture. The note with it: Murine coronavirus.
Assay [13] concerns Feline infectious peritonitis virus. Description: microbe, parasite or virus in culture. Particulars: Alphacoronavirus 1.
In assay [14] the test system is SARS-CoV. Put plainly: microbe, parasite or virus in culture. The note with it: Severe acute respiratory syndrome-related coronavirus.

In brackets after ≈: the same amount, converted by molar mass. Peptide text beside a SMILES is read from it. Bounds are passed on as bounds.

For orientation: MIC means the lowest concentration found to suppress growth. On to `CC(=O)NCCNc1nc(NCC(=O)NCCNc2nc(NCC(N)=O)nc(N(Cc3ccccc3)Cc3ccccc3)n2)nc(N(CCCN)CCCN)n1`, for which the minimal inhibitory concentration (MIC) in assay [1] is 64 µg/mL (≈ 82.9 µM); in assay [2] it was 32 µg/mL (≈ 41.5 µM); in assay [3] it was 32 µg/mL (≈ 41.5 µM); in [4], 32 µg/mL (≈ 41.5 µM).

As to `CCCCCCCCCCCCCCCCNC(=O)[C@@H](N)Cc1ccccc1`, the MIC came out at 1250 µg/mL (≈ 3220 µM) in assay [5]; 625 µg/mL (≈ 1610 µM) in assay [6]; 1250 µg/mL (≈ 3220 µM) in assay [7]; 625 µg/mL (≈ 1610 µM) in assay [8]; 1250 µg/mL (≈ 3220 µM) in [9].

The IC50 is the concentration that inhibits the measured activity by half. Low values mean inhibition by little substance, high ones a need for much substance. As usually defined, the EC50 is the concentration that produces a half-maximal response. Lower therefore signals higher potency in that assay. On to `CCCC1CCC(OC(=O)N[C@@H](CC(C)C)C(=O)N[C@@H](C[C@H]2CCNC2=O)C(O)S(=O)(=O)O)CC1` (some centres not stated), for which the IC50 worked out at 100 nM in [10] and 1600 nM in [11]. In addition, the EC50 in assay [12] was found to be 160 nM; in assay [13] it was 170 nM.

For the compound `CC(C)C[C@H](NC(=O)OCC1CCC(F)(F)CC1)C(=O)N[C@@H](C[C@H]1CCNC1=O)C(O)S(=O)(=O)O` (some centres not stated), the 50% inhibitory concentration (IC50) was 100 nM in [10], 1100 nM in assay [14] and 1100 nM in assay [11]. Further, the EC50 came out at 160 nM in assay [12] and 70 nM in [13].

Consider `CC(=O)NCCNc1nc(NCC(=O)NCCNc2nc(NCC(=O)NCCNc3nc(NCC(N)=O)nc(N(Cc4ccccc4)Cc4ccccc4)n3)nc(N(CCCN)CCCN)n2)nc(N(Cc2ccccc2)Cc2ccccc2)n1`, for which the minimum inhibitory concentration (MIC) in assay [1] is 128 µg/mL (≈ 110 µM); in assay [2] it was 32 µg/mL (≈ 27.6 µM); in assay [3], 64 µg/mL (≈ 55.1 µM); in [4], 64 µg/mL (≈ 55.1 µM).

For `CCCCCCCCCCCCNC(=O)[C@@H](N)C(C)CC` (some centres not stated), the MIC in assay [5] stood at 2 µg/mL (≈ 6.7 µM); in assay [6] it was 5 µg/mL (≈ 16.7 µM); in assay [7] it was 2.5 µg/mL (≈ 8.37 µM); in assay [8], 510 µg/mL (≈ 1710 µM); in assay [9] it was 4 µg/mL (≈ 13.4 µM).

For the compound `CCCCCCCCCCCCNC(=O)[C@H](N)Cc1ccccc1`, the MIC in assay [5] is 5 µg/mL (≈ 15 µM); in assay [6], 10 µg/mL (≈ 30.1 µM); in [7] it was 5 µg/mL (≈ 15 µM); in [8], 8.3 µg/mL (≈ 25 µM); in assay [9], 20 µg/mL (≈ 60.1 µM).

Take `CCCCCCCCNC(=O)[C@@H](N)Cc1ccccc1`: the MIC was 39 µg/mL (≈ 141 µM) in [5]; 62.5 µg/mL (≈ 226 µM) in assay [6]; 39 µg/mL (≈ 141 µM) in assay [7]; 78 µg/mL (≈ 282 µM) in assay [8]; 52 µg/mL (≈ 188 µM) in assay [9].

Consider `CC(=O)NCCNc1nc(NCC(=O)NCCNc2nc(NCC(=O)NCCNc3nc(NCC(N)=O)nc(N(CCCN)CCCN)n3)nc(N(Cc3ccccc3)Cc3ccccc3)n2)nc(N(CCCN)CCCN)n1`, for which the MIC in assay [1], in assay [2], in assay [3] and in assay [4] was 16 µg/mL (≈ 14.6 µM) throughout.

For the compound `CC(=O)NCCNc1nc(NCC(=O)NCCNc2nc(NCC(=O)NCCNc3nc(NCC(=O)NCCNc4nc(NCC(N)=O)nc(N(Cc5ccccc5)Cc5ccccc5)n4)nc(N(CCCN)CCCN)n3)nc(N(Cc3ccccc3)Cc3ccccc3)n2)nc(N(CCCN)CCCN)n1`, the MIC in assay [1], in [2], in assay [3] and in assay [4] was 16 µg/mL (≈ 10.8 µM) each time.

As for `CCCCCCCCCCNC(=O)[C@@H](N)Cc1ccccc1`, the MIC in assay [5] was 10 µg/mL (≈ 32.8 µM); in assay [6] it was 15.6 µg/mL (≈ 51.2 µM); in [7], 13.3 µg/mL (≈ 43.7 µM); in assay [8], 39 µg/mL (≈ 128 µM); in assay [9], 20 µg/mL (≈ 65.7 µM).

As to `CCCCCCCCCCCCNC(=O)[C@@H](N)C(C)C`, the MIC is 1.67 µg/mL (≈ 5.87 µM) in assay [5]; 6.5 µg/mL (≈ 22.8 µM) in assay [6]; 3.3 µg/mL (≈ 11.6 µM) in assay [7]; 4.2 µg/mL (≈ 14.8 µM) in [8]; 8.3 µg/mL (≈ 29.2 µM) in assay [9].

On to `CC(=O)NCCNc1nc(NCC(N)=O)nc(N(CCCN)CCCN)n1`, for which the MIC in assay [1] is 128 µg/mL (≈ 335 µM); in assay [2], 128 µg/mL (≈ 335 µM); in [3] it was greater than 128 µg/mL; in assay [4], greater than 128 µg/mL.

For the compound `C#Cc1cccc(NC(=O)[C@@H](N)CC(C)C)c1`, the MIC in assay [5] was determined as 10.6 µg/mL (≈ 46 µM); in assay [6], 15.6 µg/mL (≈ 67.7 µM); in [7] it was 10.6 µg/mL (≈ 46 µM); in assay [8], 31.2 µg/mL (≈ 135 µM); in assay [9], 31.2 µg/mL (≈ 135 µM).

For the compound `CC(=O)NCCNc1nc(NCC(N)=O)nc(N(Cc2ccccc2)Cc2ccccc2)n1`, the MIC in assay [1], in assay [2], in assay [3] and in [4] was greater than 128 µg/mL in each case.

In the case of `CCCCCCCCCCCCNC(=O)[C@@H](N)c1ccccc1`, the MIC in assay [5] amounted to 2.5 µg/mL (≈ 7.85 µM); in assay [6], 3.9 µg/mL (≈ 12.2 µM); in assay [7], 7.8 µg/mL (≈ 24.5 µM); in assay [8] it was 15.6 µg/mL (≈ 49 µM); in [9], 15.6 µg/mL (≈ 49 µM).

Regarding `CCCCCCCCCCCCNC(=O)[C@@H](N)CC(C)C`, the MIC in assay [5] worked out at 2.5 µg/mL (≈ 8.37 µM); in [6] it was 4.17 µg/mL (≈ 14 µM); in assay [7] it was 3.3 µg/mL (≈ 11.1 µM); in assay [8], 10 µg/mL (≈ 33.5 µM); in assay [9], 6.25 µg/mL (≈ 20.9 µM).

Consider `CCCCCCNC(=O)[C@@H](N)Cc1ccccc1`, for which the MIC in assay [5] amounted to 156 µg/mL (≈ 628 µM); in assay [6], 156 µg/mL (≈ 628 µM); in [7], 624 µg/mL (≈ 2510 µM); in assay [8], 156 µg/mL (≈ 628 µM); in assay [9], 312 µg/mL (≈ 1260 µM).

Take `CC(C)C[C@H](NC(=O)OC1CCCCC1)C(=O)N[C@H](C=O)C[C@H]1CCNC1=O`: the IC50 worked out at 350 nM in assay [10], 3900 nM in assay [14] and 3700 nM in assay [11]. Besides, the figures for the EC50 in [12] and in assay [13] were 120 nM and 90 nM, respectively.

As for `CCCCCCCCCCCCNC(=O)[C@@H](N)Cc1ccccc1`, the minimal inhibitory concentration (MIC) stood at 5 µg/mL (≈ 15 µM) in assay [5]; 5 µg/mL (≈ 15 µM) in assay [6]; 2.5 µg/mL (≈ 7.52 µM) in assay [7]; 10 µg/mL (≈ 30.1 µM) in assay [8]; 16.6 µg/mL (≈ 49.9 µM) in assay [9].

As to `C#Cc1cccc(NC(=O)[C@@H](N)C(C)CC)c1` (some centres not stated), the MIC in [5] turned out to be 15.6 µg/mL (≈ 67.7 µM); in [6] it was 15.6 µg/mL (≈ 67.7 µM); in [7], 31.2 µg/mL (≈ 135 µM); in assay [9], 62.4 µg/mL (≈ 271 µM).

Consider `CCCCNC(=O)[C@@H](N)Cc1ccccc1`, for which the MIC in assay [6] turned out to be 416 µg/mL (≈ 1890 µM); in [7], 1250 µg/mL (≈ 5670 µM); in assay [8], 416 µg/mL (≈ 1890 µM); in assay [9], 624 µg/mL (≈ 2830 µM).

Regarding `CC(=O)N[C@@H](CCCCN)C(=O)N[C@@H](Cc1c[nH]c2ccccc12)C(=O)N[C@@H](CCCCN)C(=O)N[C@@H](Cc1c[nH]c2ccccc12)C(N)=O` (Ac-KWKW-NH2), the MIC in [1], in assay [2], in assay [3] and in assay [4] was greater than 128 µg/mL throughout.

For `CC(=O)N[C@@H](CCCCN)C(=O)N[C@@H](Cc1c[nH]c2ccccc12)C(=O)N[C@@H](CCCCN)C(N)=O` (Ac-Lys-Trp-Lys-NH2), the MIC is 64 µg/mL (≈ 128 µM) in [1], 128 µg/mL (≈ 255 µM) in assay [2], greater than 128 µg/mL in assay [3] and greater than 128 µg/mL in assay [4].

For the compound `CC(=O)N[C@@H](CCCCN)C(=O)N[C@@H](Cc1c[nH]c2ccccc12)C(N)=O` (Ac-Lys-Trp-NH2), the minimum inhibitory concentration (MIC) was 128 µg/mL (≈ 343 µM) in assay [1], 128 µg/mL (≈ 343 µM) in [2], greater than 128 µg/mL in assay [3] and greater than 128 µg/mL in [4].

`CC(=O)N[C@@H](Cc1c[nH]c2ccccc12)C(=O)N[C@@H](CCCCN)C(=O)N[C@@H](Cc1c[nH]c2ccccc12)C(N)=O` (Ac-Trp-Lys-Trp-NH2): the MIC in assay [1], in assay [2], in assay [3] and in [4] was greater than 128 µg/mL each time.

For the origin of these results see ChEMBL document CHEMBL5120880, “Peptidomimetics: An Overview of Recent Medicinal Chemistry Efforts toward the Discovery of Novel Small Molecule Inhibitors” (J Med Chem, 2022).
